# Data from PubChem BioAssay (NCI).
#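 The compound was tested at five concentrations on cells cultured in 96-well plates, with a 48-hour exposure period. Definition used: TGI = concentration required for complete inhibition of growth.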
# Key:
# Assay in all cases: inhibition of tumour cell growth, NCI panel, 48 h
# UO-31 renal = tested on: UO-31 renal
# NCI-H226 lung = tested on: NCI-H226 lung
# K-562 leukemia = tested on: K-562 leukemia
# HT29 colon = tested on: HT29 colon
# A549 NSCLC = tested on: A549 NSCLC
# SR leukemia = tested on: SR leukemia
# NCI/ADR-RES ovarian = tested on: NCI/ADR-RES ovarian
# UACC-62 melanoma = tested on: UACC-62 melanoma
# MCF7 breast = tested on: MCF7 breast
# NCI-H460 lung = tested on: NCI-H460 lung
# HS 578T breast = tested on: HS 578T breast
# OVCAR-3 ovarian = tested on: OVCAR-3 ovarian
# COLO 205 colon = tested on: COLO 205 colon
# MDA-N = tested on: MDA-N
# MDA-MB-435 = tested on: MDA-MB-435
# PC-3 prostate = tested on: PC-3 prostate
# OVCAR-8 ovarian = tested on: OVCAR-8 ovarian
# IGROV1 ovarian = tested on: IGROV1 ovarian
# M14 melanoma = tested on: M14 melanoma
# SF-539 CNS = tested on: SF-539 CNS
# SK-MEL-5 melanoma = tested on: SK-MEL-5 melanoma
# MOLT-4 leukemia = tested on: MOLT-4 leukemia
# OVCAR-5 ovarian = tested on: OVCAR-5 ovarian
# SK-MEL-28 melanoma = tested on: SK-MEL-28 melanoma
# TK-10 renal = tested on: TK-10 renal
# DU-145 prostate = tested on: DU-145 prostate
# A498 renal = tested on: A498 renal
# KM12 colon = tested on: KM12 colon
# OVCAR-4 ovarian = tested on: OVCAR-4 ovarian
# BT-549 breast = tested on: BT-549 breast
# NCI-H23 lung = tested on: NCI-H23 lung
# SF-295 CNS = tested on: SF-295 CNS
# T-47D breast = tested on: T-47D breast
# EKVX NSCLC = tested on: EKVX NSCLC
# ACHN renal = tested on: ACHN renal
# HL-60(TB) leukemia = tested on: HL-60(TB) leukemia
# SF-268 CNS = tested on: SF-268 CNS
# U251 CNS = tested on: U251 CNS
# 786-0 renal = tested on: 786-0 renal
# MALME-3M melanoma = tested on: MALME-3M melanoma
# MDA-MB-231 breast = tested on: MDA-MB-231 breast
# NCI-H522 lung = tested on: NCI-H522 lung
# RXF 393 renal = tested on: RXF 393 renal
# HOP-62 NSCLC = tested on: HOP-62 NSCLC
# LOX IMVI melanoma = tested on: LOX IMVI melanoma
# HCT-15 colon = tested on: HCT-15 colon
# SK-MEL-2 melanoma = tested on: SK-MEL-2 melanoma
# CAKI-1 renal = tested on: CAKI-1 renal
# SK-OV-3 ovarian = tested on: SK-OV-3 ovarian
# SN12C renal = tested on: SN12C renal
# CCRF-CEM leukemia = tested on: CCRF-CEM leukemia
# HCT-116 colon = tested on: HCT-116 colon
# RPMI-8226 leukemia = tested on: RPMI-8226 leukemia
# UACC-257 melanoma = tested on: UACC-257 melanoma
# SNB-75 CNS = tested on: SNB-75 CNS
# SW-620 colon = tested on: SW-620 colon
# HCC-2998 colon = tested on: HCC-2998 colon
# DMS 273 small cell lung = tested on: DMS 273 small cell lung
# LXFL 529 NSCLC = tested on: LXFL 529 NSCLC
# XF 498 CNS = tested on: XF 498 CNS
# M19-MEL melanoma = tested on: M19-MEL melanoma
# DLD-1 colon = tested on: DLD-1 colon
# HOP-92 NSCLC = tested on: HOP-92 NSCLC
# KM20L2 colon = tested on: KM20L2 colon
# SNB-19 CNS = tested on: SNB-19 CNS
# HOP-18 NSCLC = tested on: HOP-18 NSCLC
# DMS 114 small cell lung = tested on: DMS 114 small cell lung
smiles,measurement,setting,value
C[N+](C)(CCCn1ccnc1[N+](=O)[O-])CCCn1ccnc1[N+](=O)[O-],TGI,UO-31 renal,> 100 µM
same,TGI,NCI-H226 lung,> 100 µM
same,TGI,K-562 leukemia,> 100 µM
same,TGI,HT29 colon,> 100 µM
same,TGI,A549 NSCLC,> 100 µM
same,TGI,SR leukemia,> 100 µM
same,TGI,NCI/ADR-RES ovarian,> 100 µM
same,TGI,UACC-62 melanoma,> 100 µM
same,TGI,MCF7 breast,> 100 µM
same,TGI,NCI-H460 lung,> 100 µM
same,TGI,HS 578T breast,> 100 µM
same,TGI,OVCAR-3 ovarian,> 100 µM
same,TGI,COLO 205 colon,> 100 µM
same,TGI,MDA-N,> 100 µM
same,TGI,MDA-MB-435,> 100 µM
same,TGI,PC-3 prostate,> 100 µM
same,TGI,OVCAR-8 ovarian,> 100 µM
same,TGI,IGROV1 ovarian,> 100 µM
same,TGI,M14 melanoma,> 100 µM
same,TGI,SF-539 CNS,> 100 µM
same,TGI,SK-MEL-5 melanoma,> 100 µM
same,TGI,MOLT-4 leukemia,> 100 µM
same,TGI,OVCAR-5 ovarian,> 100 µM
same,TGI,SK-MEL-28 melanoma,> 100 µM
same,TGI,TK-10 renal,> 100 µM
same,TGI,DU-145 prostate,> 100 µM
same,TGI,A498 renal,> 100 µM
same,TGI,KM12 colon,> 100 µM
same,TGI,OVCAR-4 ovarian,> 100 µM
same,TGI,BT-549 breast,> 100 µM
same,TGI,NCI-H23 lung,> 100 µM
same,TGI,SF-295 CNS,> 100 µM
same,TGI,T-47D breast,> 100 µM
same,TGI,EKVX NSCLC,> 100 µM
same,TGI,ACHN renal,> 100 µM
same,TGI,HL-60(TB) leukemia,> 100 µM
same,TGI,SF-268 CNS,> 100 µM
same,TGI,U251 CNS,> 100 µM
same,TGI,786-0 renal,> 100 µM
same,TGI,MALME-3M melanoma,> 100 µM
same,TGI,MDA-MB-231 breast,> 100 µM
same,TGI,NCI-H522 lung,> 100 µM
same,TGI,RXF 393 renal,> 100 µM
same,TGI,HOP-62 NSCLC,> 100 µM
same,TGI,LOX IMVI melanoma,> 100 µM
same,TGI,HCT-15 colon,> 100 µM
same,TGI,SK-MEL-2 melanoma,> 100 µM
same,TGI,CAKI-1 renal,> 100 µM
same,TGI,SK-OV-3 ovarian,> 100 µM
same,TGI,SN12C renal,> 100 µM
same,TGI,CCRF-CEM leukemia,> 100 µM
same,TGI,HCT-116 colon,> 100 µM
same,TGI,RPMI-8226 leukemia,> 100 µM
same,TGI,UACC-257 melanoma,> 100 µM
same,TGI,SNB-75 CNS,> 100 µM
same,TGI,SW-620 colon,> 100 µM
O=C1N(Cl)C(=O)C(c2ccc(Cl)cc2)(c2ccc(Cl)cc2)N1Cl,TGI,HCC-2998 colon,> 100 µM
same,TGI,UO-31 renal,> 100 µM
same,TGI,NCI-H226 lung,> 100 µM
same,TGI,K-562 leukemia,> 100 µM
same,TGI,HT29 colon,> 100 µM
same,TGI,A549 NSCLC,> 100 µM
same,TGI,SR leukemia,> 100 µM
same,TGI,NCI-H460 lung,> 100 µM
same,TGI,OVCAR-3 ovarian,> 100 µM
same,TGI,DMS 273 small cell lung,> 100 µM
same,TGI,COLO 205 colon,> 100 µM
same,TGI,OVCAR-8 ovarian,> 100 µM
same,TGI,LXFL 529 NSCLC,> 100 µM
same,TGI,IGROV1 ovarian,> 100 µM
same,TGI,M14 melanoma,> 100 µM
same,TGI,SF-539 CNS,> 100 µM
same,TGI,SK-MEL-5 melanoma,> 100 µM
same,TGI,XF 498 CNS,> 100 µM
same,TGI,MOLT-4 leukemia,> 100 µM
same,TGI,SK-MEL-28 melanoma,> 100 µM
same,TGI,TK-10 renal,> 100 µM
same,TGI,M19-MEL melanoma,> 100 µM
same,TGI,A498 renal,> 100 µM
same,TGI,KM12 colon,> 100 µM
same,TGI,OVCAR-4 ovarian,> 100 µM
same,TGI,DLD-1 colon,> 100 µM
same,TGI,HOP-92 NSCLC,> 100 µM
same,TGI,KM20L2 colon,> 100 µM
same,TGI,NCI-H23 lung,> 100 µM
same,TGI,SF-295 CNS,> 100 µM
same,TGI,EKVX NSCLC,> 100 µM
same,TGI,ACHN renal,> 100 µM
same,TGI,HL-60(TB) leukemia,> 100 µM
same,TGI,SF-268 CNS,> 100 µM
same,TGI,U251 CNS,> 100 µM
same,TGI,786-0 renal,> 100 µM
same,TGI,MALME-3M melanoma,> 100 µM
same,TGI,NCI-H522 lung,> 100 µM
same,TGI,RXF 393 renal,84.8 µM
same,TGI,SNB-19 CNS,> 100 µM
same,TGI,HCT-15 colon,> 100 µM
same,TGI,SK-MEL-2 melanoma,> 100 µM
same,TGI,CAKI-1 renal,> 100 µM
same,TGI,SK-OV-3 ovarian,> 100 µM
same,TGI,SN12C renal,> 100 µM
same,TGI,CCRF-CEM leukemia,60.9 µM
same,TGI,HCT-116 colon,> 100 µM
same,TGI,HOP-18 NSCLC,> 100 µM
same,TGI,RPMI-8226 leukemia,> 100 µM
same,TGI,SNB-75 CNS,> 100 µM
same,TGI,SW-620 colon,> 100 µM
same,TGI,DMS 114 small cell lung,> 100 µM
